Results on 10 compounds are retold here after PubChem BioAssay (NCI).

Common to all, as to experiment: growth of human tumour cells (NCI), 48 h
Experiment [1] concerns A549 NSCLC.
Experiment [2] deals with HCC-2998 colon.
Experiment [3] relates to HT29 colon.
Experiment [4] deals with M14 melanoma.
Experiment [5] has as its system NCI-H226 lung.
Experiment [6] has as its system OVCAR-3 ovarian.
The subject of experiment [7] is OVCAR-5 ovarian.
Experiment [8] has as its system SNB-75 CNS.
The subject of experiment [9] is TK-10 renal.
In experiment [10] the test system is K-562 leukemia.

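1) Cells in 96-well plates. 2) Compound, 48 h, 5 concentrations. 3) Linear interpolation between surrounding doses. 4) Unreached endpoint = highest concentration. GI50 marks 50% less growth. TGI is the concentration that stops growth completely.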

Consider `O=C(Nc1ccncc1)C(=O)c1cn(S(=O)(=O)c2ccc(F)cc2)c2ccccc12`, for which the GI50 is 18.5 µM in experiment [1]; 8.57 µM in experiment [2]; 1.88 µM in experiment [3]; 1.78 µM in experiment [4]; 9.15 µM in experiment [5]; 1.76 µM in [6]. The GI50 in [7] was 7.96 µM; in experiment [8], 2.76 µM; in [9], 19.2 µM. Further, the TGI in experiment [1] was over 100 µM; in experiment [2], over 100 µM; in experiment [3], over 100 µM; in experiment [4], over 100 µM; in [5], over 100 µM; in experiment [6] it was 7.6 µM. In addition, the TGI was over 100 µM in [7], 15.7 µM in experiment [8] and 72.4 µM in [9].

As to `COc1cc(-c2cc(-c3cc4c([nH]c5ccccc54)c(-c4cc(OC)c(OC)c(OC)c4)n3)cc(-c3ccccc3)n2)cc(OC)c1OC`, the GI50 is 3.4 µM in experiment [1]; 7.3 µM in [2]; 4.03 µM in experiment [3]; 3.39 µM in experiment [10]; 3.49 µM in experiment [4]; 7.56 µM in [5]. Besides, the GI50 in [6] was 3.9 µM; in [7], 25.7 µM; in experiment [9] it was 4.5 µM. The TGI in experiment [1] was 80.9 µM; in experiment [2], over 100 µM; in [3], 25.5 µM; in experiment [10], over 100 µM; in [4] it was over 100 µM; in experiment [5], over 100 µM. Besides, the TGI in [6] is 17.3 µM; in [7], over 100 µM; in experiment [9], 31.2 µM.

With `COC1(OC)C(N(C)C)=C(Cl)C(=O)/C1=C/C=O`, the TGI in [1], in experiment [2], in experiment [3], in [10], in experiment [4] and in experiment [5] was over 100 µM throughout. For the same compound, the TGI in [6], in experiment [7] and in [9] was over 100 µM each time.

Regarding `Cn1cc(-c2csc(-c3c[nH]c4ccc(F)cc34)n2)c2cnccc21`, the GI50 in [1] is 1.83 µM; in experiment [2], 1.95 µM; in [3], 1.69 µM; in [4], 1.74 µM; in experiment [5], 1.88 µM; in [6], 1.83 µM. In addition, the GI50 in [7] is 1.91 µM; in [8], 1.5 µM; in [9] it was 2.22 µM. Besides, the TGI in experiment [1] was 3.42 µM; in experiment [2] it was 3.66 µM; in experiment [3], 3.29 µM; in experiment [4], 3.27 µM; in experiment [5], 4.03 µM; in experiment [6] it was 3.32 µM. Besides, the TGI is 3.36 µM in [7], 2.85 µM in [8] and 3.75 µM in [9].

On to `CC1c2c(Cl)nc3ccccc3c2Oc2c1c(Cl)nc1ccccc21`, for which the TGI in experiment [1], in experiment [2], in experiment [3], in experiment [10], in [6] and in experiment [7] was over 100 µM in each case. The TGI in [8] and in [9] was over 100 µM throughout.

Take `CC1CN(C(=O)CN2CCC(CCCCN(C)C)CC2)c2ccccc2NC1=O` (stereo not drawn): the TGI in [1], in experiment [2], in experiment [3], in experiment [10], in [4] and in [5] was over 100 µM throughout. In addition, the TGI in experiment [6] and in [7] was over 100 µM in each case.

As for `O=C(c1ccccc1)c1cc2ccccc2o1`, the GI50 is 95 µM in experiment [1]; over 100 µM in experiment [2]; 76.1 µM in experiment [3]; over 100 µM in experiment [4]; over 100 µM in experiment [5]; 59.6 µM in experiment [6]. The GI50 was over 100 µM in experiment [7], 63.2 µM in experiment [8] and over 100 µM in experiment [9]. Further, the TGI in experiment [1], in [2], in [3], in experiment [4], in experiment [5] and in [6] was over 100 µM throughout. Also, the TGI in [7], in experiment [8] and in experiment [9] was over 100 µM in each case.

As for `Cc1cc(N(CCC#N)CCC#N)ccc1N=Nc1ccc(C(=O)O)cc1`, the TGI in [1], in [2], in experiment [3], in experiment [4], in [5] and in experiment [6] was over 100 µM throughout. For the same compound, the TGI in experiment [7], in experiment [8] and in experiment [9] was over 100 µM each time.

For the compound `O=C1/C(=C/c2ccc3c(c2)OCO3)SC2C=Nc3ccccc3N12` (stereo not drawn), the TGI in experiment [1], in [2], in experiment [3], in [4], in experiment [5] and in experiment [6] was over 100 µM in each case. For the same compound, the TGI in [7], in experiment [8] and in experiment [9] was over 100 µM each time.

Take `CCn1c2ccccc2c2cc(NC(=O)Nc3ccc([N+](=O)[O-])cc3C)ccc21`: the GI50 in experiment [1] was 3.01 µM; in [2], 4.25 µM; in experiment [3] it was 3.01 µM; in [4], 6.21 µM; in experiment [5], 4.4 µM; in experiment [6], 3.39 µM. In addition, the GI50 in experiment [7] was 22.5 µM; in experiment [8], 3.05 µM; in experiment [9], 3.62 µM. Besides, the TGI was 15.6 µM in [1]; over 100 µM in [2]; 15.6 µM in experiment [3]; 64.1 µM in experiment [4]; 29.2 µM in [5]; 19.4 µM in [6]. Also, the TGI in experiment [7] is over 100 µM; in experiment [8], 17.6 µM; in experiment [9] it was 15.3 µM.
